Here are results for six compounds from US10358446B2, “Bruton's tyrosine kinase inhibitors” (Zibo Biopolar Changsheng Pharmaceutical Co. Ltd., priority 2015, dated 2019).

The test system of test [1] is Ramos cells. The experiment in a line: Calcium flux assay, IgM-induced calcium influx in Ramos cells. Format: cell-based. To be noted: Ramos cells stimulated with goat anti-human IgM antibody 10 μg/ml; read-out: Ramos Ca Flux. The method, then: Calcium flux fluorescence-based assays were performed in aFDSS7000EX (Hamamatsu Photonics) fluorometric imaging plate reader according to manufacturer instructions. Compounds to be assayed were dissolved in DMSO, diluted to appropriate concentrations in Ca^2+ buffer ranging from 0 to 10 μM (at a dilution factor of 0.1), added 5 μl (6×) to each well (the final DMSO concentration was 0.1% in each well). Then 12.5 μL 2× dye loading solution (Fluo-4 NW Calcium Assay Kits, Invitrogen) was added per well of a 384-well plate. Afterwards, actively growing Ramos cells (ATCC) in RPM1640 medium supplemented with 10% FBS (Invitrogen) were washed and re-plated in assay buffer (from Fluo-4 NW Calcium Assay Kits, Invitrogen) to approximately 6.4×10^6/ml (80000 cells/12.5 μL in 384-well plates). […] The plates were now ready to be used in an experiment Immediately after the transfer and a 10-s recording of baseline fluorescence, the compound treated cells were stimulated with a goat anti-human IgM antibody (10 μg/ml; Jackson Immuno Research) and read in a FDSS for 240 seconds. Difference between the signal and that at baseline, designated adjusted relative fluorescence unit, was calculated by using a custom Excel (Microsoft, Redmond, Wash.) template to determine IgM-induced calcium influx and its inhibition by compounds. […]

For test [2], the target named is T1, BTK (Homo sapiens (Human), UniProt Q06187). As to the kind of experiment: Btk kinase assay (HTRF). Format: biochemical. As to conditions: [ATP]=80 μM, BTK=3.4 nM. The method, boiled down: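 HTRF kinase read-out (665/615 nm ratio, excitation 330 nm) after EDTA quench and 1 h detection incubation. Reaction: 3.4 nM BTK, ATP 80 μM, peptide substrate 1 μM, compound, HEPES pH 7.0 buffer, 1 h; IC50 derived using uninhibited and enzyme-free controls.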
Target sequence in this assay (Q06187 whole entry, species assumed): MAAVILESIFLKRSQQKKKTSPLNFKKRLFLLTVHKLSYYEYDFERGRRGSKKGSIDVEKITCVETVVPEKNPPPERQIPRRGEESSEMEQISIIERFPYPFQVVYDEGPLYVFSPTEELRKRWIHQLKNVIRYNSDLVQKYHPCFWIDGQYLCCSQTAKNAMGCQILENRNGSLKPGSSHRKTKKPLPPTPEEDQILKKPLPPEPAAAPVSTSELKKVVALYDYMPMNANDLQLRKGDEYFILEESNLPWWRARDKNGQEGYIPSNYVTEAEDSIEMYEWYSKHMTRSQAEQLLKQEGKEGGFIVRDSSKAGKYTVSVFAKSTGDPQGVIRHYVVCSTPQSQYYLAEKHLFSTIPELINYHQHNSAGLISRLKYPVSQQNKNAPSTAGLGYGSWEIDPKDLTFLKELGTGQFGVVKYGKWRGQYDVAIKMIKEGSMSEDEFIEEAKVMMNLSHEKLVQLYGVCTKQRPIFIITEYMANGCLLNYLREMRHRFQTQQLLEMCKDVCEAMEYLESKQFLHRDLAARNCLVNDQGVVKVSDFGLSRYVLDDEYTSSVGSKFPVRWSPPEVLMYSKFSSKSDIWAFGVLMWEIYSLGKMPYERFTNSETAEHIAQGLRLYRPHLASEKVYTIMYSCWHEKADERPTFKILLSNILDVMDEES

The target in test [3] is T1, BTK. As to the kind of experiment: Btk occupancy in cellular assays (PCI-33380 labeling, Jeko-1 cells). To be noted: 100 nM compound, 1.5 h pre-incubation, PCI-33380 probe. Format: cell-based. Here is the method: For PCI-33380 labeling of human B cells, 10^6 Jeko-1 cells were pre-incubated with compound for 1.5 h before labeling. Then cells were treated with PCI-33380 at 5 μM for 1 h. Washed, lysed in Ripa buffer containing sample reducing agent, and analyzed by SDS/PAGE and fluorescent gel scanning using a Typhoon scanner 9500 (GE Healthcare) (Ex, 532 nm; Em, 555 nm). The gel was then blotted and total Btk levels detected by standard Western blot with Btk antibody (CST).
Target sequence in this assay (Q06187 whole entry): as the sequence (Q06187 whole entry, species assumed) above

For test [4], the target named is LYN (Homo sapiens (Human), UniProt P07948). The experiment in a line: LYN kinase assay (HTRF). Format: biochemical. To be noted: [ATP]=20 μM, LYN=0.12 nM.
In test [5] the target is Btk (Mus musculus (Mouse), UniProt P35991). As to the kind of experiment: Btk occupancy in vivo (PBMCs or splenocytes, PCI-33380 labeling). To be noted: 25 mg/kg single oral dose, Balb/c mice, after 4 hours. Also noted: species or system Babc/L mice. Here is the method:
For analysis of Btk occupancy in Babc/L mice following oral dosing of compounds after 4 hours. Isolating peripheral blood mononuclear cells (PBMCs) with mouse peripheral blood separation kit (Hao Yang Biological Manufacture CO., LTD, Tianjin) were collected from Babc/L mice (1 ml blood from two mice). Spleens were processed to splenocytes followed by 5 min incubation in red blood cell lysing buffer (from mouse peripheral blood separation kit). PBMCs or splenocytes were then PCI-33380-labeled and lysates analyzed by fluorescent gel scanning as described in cellular assays.

The target of test [6] is LCK (Homo sapiens (Human), UniProt P06239). As to the kind of experiment: LCK kinase assay (HTRF). Format: biochemical. To be noted: [ATP]=20 μM, LCK=0.2 nM.
The target in test [7] is BLK (Homo sapiens (Human), UniProt P51451). As to the kind of experiment: BLK kinase assay (HTRF). Format: biochemical. As to conditions: [ATP]=20 μM, BLK=0.6 nM.

Where two headings read alike, the source gives them in different places.

LYN, sequence (P07948 whole entry, species assumed): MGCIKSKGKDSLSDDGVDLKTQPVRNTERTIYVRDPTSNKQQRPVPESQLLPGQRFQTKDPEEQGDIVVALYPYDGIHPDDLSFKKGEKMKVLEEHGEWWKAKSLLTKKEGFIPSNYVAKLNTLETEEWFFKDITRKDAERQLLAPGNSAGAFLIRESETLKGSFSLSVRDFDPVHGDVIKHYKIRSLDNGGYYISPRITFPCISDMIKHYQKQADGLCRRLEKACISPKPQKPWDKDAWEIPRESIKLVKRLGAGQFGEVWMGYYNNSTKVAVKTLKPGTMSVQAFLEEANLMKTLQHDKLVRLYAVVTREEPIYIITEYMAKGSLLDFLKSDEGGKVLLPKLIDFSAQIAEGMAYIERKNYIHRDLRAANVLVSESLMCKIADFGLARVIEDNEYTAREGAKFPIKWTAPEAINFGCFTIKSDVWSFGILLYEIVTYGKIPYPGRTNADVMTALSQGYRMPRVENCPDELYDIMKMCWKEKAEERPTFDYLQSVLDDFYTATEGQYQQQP
LCK, sequence (P06239 whole entry, species assumed): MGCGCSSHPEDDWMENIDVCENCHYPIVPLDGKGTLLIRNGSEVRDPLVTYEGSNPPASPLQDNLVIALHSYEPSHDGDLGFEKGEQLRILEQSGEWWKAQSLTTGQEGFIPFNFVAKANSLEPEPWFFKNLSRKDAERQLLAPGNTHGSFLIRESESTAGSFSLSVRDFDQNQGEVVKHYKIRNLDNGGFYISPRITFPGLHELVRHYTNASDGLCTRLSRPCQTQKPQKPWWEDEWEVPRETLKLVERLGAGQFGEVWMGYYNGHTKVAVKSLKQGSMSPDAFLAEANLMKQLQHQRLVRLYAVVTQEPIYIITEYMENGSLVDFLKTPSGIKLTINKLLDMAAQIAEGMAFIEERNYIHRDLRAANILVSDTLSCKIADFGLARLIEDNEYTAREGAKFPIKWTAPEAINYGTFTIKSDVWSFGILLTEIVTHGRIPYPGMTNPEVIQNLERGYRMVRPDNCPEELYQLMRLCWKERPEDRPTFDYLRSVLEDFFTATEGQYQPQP
BLK, sequence (P51451 whole entry, species assumed): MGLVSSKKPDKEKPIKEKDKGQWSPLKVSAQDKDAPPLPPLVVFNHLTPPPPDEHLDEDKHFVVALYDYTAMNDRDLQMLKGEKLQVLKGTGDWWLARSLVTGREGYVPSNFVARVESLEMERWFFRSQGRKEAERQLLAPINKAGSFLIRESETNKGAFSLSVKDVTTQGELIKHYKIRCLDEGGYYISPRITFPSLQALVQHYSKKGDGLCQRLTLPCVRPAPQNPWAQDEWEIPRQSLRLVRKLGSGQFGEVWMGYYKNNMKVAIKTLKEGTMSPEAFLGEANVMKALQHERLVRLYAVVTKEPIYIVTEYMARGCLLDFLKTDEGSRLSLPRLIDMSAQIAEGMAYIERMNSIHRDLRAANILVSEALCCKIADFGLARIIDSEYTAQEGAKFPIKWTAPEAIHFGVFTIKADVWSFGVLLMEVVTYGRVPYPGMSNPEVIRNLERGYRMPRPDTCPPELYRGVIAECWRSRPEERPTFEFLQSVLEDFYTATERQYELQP
Btk, sequence (P35991 whole entry): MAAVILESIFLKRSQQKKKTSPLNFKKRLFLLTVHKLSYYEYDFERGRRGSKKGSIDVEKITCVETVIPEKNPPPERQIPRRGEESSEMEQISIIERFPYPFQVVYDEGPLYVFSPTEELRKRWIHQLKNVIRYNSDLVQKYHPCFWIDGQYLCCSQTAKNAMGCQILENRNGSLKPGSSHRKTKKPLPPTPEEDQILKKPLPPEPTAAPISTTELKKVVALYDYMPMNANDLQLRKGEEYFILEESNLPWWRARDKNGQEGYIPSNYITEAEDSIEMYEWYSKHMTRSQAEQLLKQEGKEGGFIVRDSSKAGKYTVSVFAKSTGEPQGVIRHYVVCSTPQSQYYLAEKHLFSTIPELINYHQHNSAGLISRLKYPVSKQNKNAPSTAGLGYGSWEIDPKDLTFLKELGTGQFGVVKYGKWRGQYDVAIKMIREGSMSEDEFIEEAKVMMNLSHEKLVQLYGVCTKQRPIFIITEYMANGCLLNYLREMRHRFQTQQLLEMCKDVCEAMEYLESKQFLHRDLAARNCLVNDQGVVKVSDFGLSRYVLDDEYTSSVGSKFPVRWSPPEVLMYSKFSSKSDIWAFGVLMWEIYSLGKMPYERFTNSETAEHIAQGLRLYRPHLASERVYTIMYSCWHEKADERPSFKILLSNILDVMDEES

Turning to `C=CC(=O)N1CC[C@@H](n2c(=O)n(-c3ccc(Oc4ccccc4)c(Cl)c3)c3cnccc32)C1` [Example 5, (R)-1-(1-acryloylpyrrolidin-3-yl)-3-(3-chloro-4-phenoxyphenyl)-1H-imidazo[4,5-c]pyridin-2(3H)-one], the IC50 is 10 to 100 nM in test [1]; ≤ 10 nM in test [2] (Table 2, read-out: BTK IC50); ≤ 10 nM in test [2] (read-out: BTK Inhibition); ≥ 10000 nM in test [4]; ≥ 10000 nM in test [6]. For the same compound, the “occupancy of the active site of Btk” value in test [3] is reported as “fully occupy”. Further, the “Btk occupancy in vivo” value in test [5] is “full occupancy”.

For `C=CC(=O)N1CC[C@@H](n2c(=O)n(-c3ccc(Oc4cccc(Cl)c4)c(Cl)c3)c3cnccc32)C1` [Example 26, (R)-1-(1-acryloylpyrrolidin-3-yl)-3-(3-chloro-4-(3-chlorophenoxy)phenyl)-1H-imidazo[4,5-c]pyridin-2(3H)-one], the IC50 was ≤ 10 nM in test [2] (Table 2, read-out: BTK IC50); ≤ 10 nM in test [2] (read-out: BTK Inhibition); 100 to 1000 nM in test [7]; 1000 to 10000 nM in test [4]; ≥ 10000 nM in test [6].

With `C=CC(=O)N1CC[C@@H](n2c(=O)n(-c3ccc(Oc4cccc(C)c4)cc3)c3cnccc32)C1` [Example 4, (R)-1-(1-acryloylpyrrolidin-3-yl)-3-(4-(m-tolyloxy)phenyl)-1H-imidazo[4,5-c]pyridin-2(3H)-one], the IC50 is 10 to 100 nM in test [1]; ≤ 10 nM in test [2] (Table 2, read-out: BTK IC50); ≤ 10 nM in test [2] (read-out: BTK Inhibition); 1000 to 10000 nM in test [4]; 1000 to 10000 nM in test [6]. Moreover, the “occupancy of the active site of Btk” value in test [3] is “fully occupy”.

On to `C=CC(=O)N1CCC[C@@H](n2c(=O)n(-c3ccc(Sc4ccccc4)cc3)c3cnccc32)C1` [Example 38, (R)-1-(1-acryloylpiperidin-3-yl)-3-(4-(phenylthio)phenyl)-1H-imidazo[4,5-c]pyridin-2(3H)-one], for which the IC50 in test [2] (Table 2, read-out: BTK IC50) is ≤ 10 nM; in test [2] (read-out: BTK Inhibition), ≤ 10 nM; in test [7], 10 to 100 nM; in test [4], ≥ 10000 nM; in test [6], ≥ 10000 nM.

With `C=CC(=O)N1CCC[C@@H](n2c(=O)n(-c3ccc(Oc4ccccc4)cc3)c3cnccc32)C1` [Example 20, (R)-1-(1-acryloylpiperidin-3-yl)-3-(4-phenoxyphenyl)-1H-imidazo[4,5-c]pyridin-2(3H)-one], the IC50 is 10 to 100 nM in test [2] (Table 2, read-out: BTK IC50); 10 to 100 nM in test [2] (read-out: BTK Inhibition); 10 to 100 nM in test [7]; ≥ 10000 nM in test [4]; 1000 to 10000 nM in test [6].

In the case of `C=CC(=O)N1CC[C@@H](n2c(=O)n(-c3ccc(Oc4cccc(C)c4C)cc3)c3cnccc32)C1` [Example 51, (R)-1-(1-acryloylpyrrolidin-3-yl)-3-(4-(2,3-dimethylphenoxy)phenyl)-1H-imidazo[4,5-c] pyridin-2(3H)-one], the IC50 in test [2] (Table 2, read-out: BTK IC50) was ≤ 10 nM; in test [2] (read-out: BTK Inhibition), ≤ 10 nM; in test [7], 10 to 100 nM; in test [4] it was ≥ 10000 nM; in test [6], ≥ 10000 nM.
